# Test results as given in PubChem BioAssay (NCI).
#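 Cultured in 96-well plates, cells were exposed to test compound for 48 hours across five concentrations. Abbreviation: GI50, concentration required for 50% inhibition of growth. TGI: total growth inhibition.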
# Columns and labels:
# Test in all cases: NCI tumour cell line growth inhibition, 48 h
# SNB-19 CNS = tested on: SNB-19 CNS
# M14 melanoma = tested on: M14 melanoma
# TK-10 renal = tested on: TK-10 renal
# SK-MEL-5 melanoma = tested on: SK-MEL-5 melanoma
# HT29 colon = tested on: HT29 colon
# K-562 leukemia = tested on: K-562 leukemia
# SK-MEL-2 melanoma = tested on: SK-MEL-2 melanoma
# MDA-MB-435 = tested on: MDA-MB-435
# NCI/ADR-RES ovarian = tested on: NCI/ADR-RES ovarian
# MDA-MB-231 breast = tested on: MDA-MB-231 breast
Compound,TGI (SNB-19 CNS) [µM],TGI (M14 melanoma) [µM],TGI (TK-10 renal) [µM],TGI (SK-MEL-5 melanoma) [µM],TGI (HT29 colon) [µM],TGI (K-562 leukemia) [µM],TGI (SK-MEL-2 melanoma) [µM],TGI (MDA-MB-435) [µM],TGI (NCI/ADR-RES ovarian) [µM],GI50 (NCI/ADR-RES ovarian) [µM],GI50 (SK-MEL-2 melanoma) [µM],GI50 (M14 melanoma) [µM],GI50 (TK-10 renal) [µM],GI50 (MDA-MB-231 breast) [µM],TGI (MDA-MB-231 breast) [µM],GI50 (MDA-MB-435) [µM],GI50 (SK-MEL-5 melanoma) [µM],GI50 (K-562 leukemia) [µM],GI50 (SNB-19 CNS) [µM]
NC(=O)NCc1c(C(N)=O)ncn1Cc1ccccc1,> 100,> 100,> 100,> 100,> 100,> 100,,,,,,,,,,,,,
Cn1c2ccccc2c(=O)c2ccc(Cl)cc21,4,,> 10,> 10,> 10,> 10,> 10,> 10,,,,,,,,,,,
CCCSc1nc(COC(=O)NC)c(COC(=O)NC)n1C,> 100,> 100,,> 100,> 100,> 100,> 100,,> 100,,,,,,,,,,
O=C1CSC(c2ccc(Cl)cc2Cl)N1c1ccc(F)cc1 (stereo unspecified),,28.8,27.7,39.8,,45.7,38,43,35.5,18.8,18.9,15.2,14.4,16.1,30.4,20.8,24.6,19.8,
O=c1c2cc(Br)cc(Br)c2nc(CCCl)n1CCO,,> 100,> 100,> 100,> 100,> 100,> 100,,,,,,,,,,,,
O=C(Nc1c(Cl)cc([N+](=O)[O-])cc1Cl)C(=O)C(C1OC(=O)c2ccccc21)[N+](=O)[O-] (stereo unspecified),> 100,> 100,> 100,> 100,> 100,> 100,> 100,,,,,,,,,,,,
COc1ccc(OC)c2c(C(=O)O)c(Cc3ccccc3)ccc12,> 100,> 100,> 100,> 100,> 100,> 100,> 100,,,,,,,,,,,,
ClCc1cccc(Cn2cnc3nc(Cl)nc(Cl)c32)c1,2.69,2.28,10.8,1.94,,2.95,3.74,3.16,,,1.78,0.854,5.95,0.234,0.694,1.65,0.614,1.48,1.32
Clc1ccc2c(c1)-c1c3c(nn1-c1ccccc1)-c1ccccc1SC3O2 (stereo unspecified),,,> 100,> 100,> 100,> 100,> 100,,,,,,,,,,,,
COc1cc(NC(C)CCCN)c2nccc(C)c2c1 (stereo unspecified),> 100,33.7,63.5,82.8,> 100,,37.9,30.4,> 100,,,,,,,,,,
O=C1NC(=O)C(CC2CCCCCCCCCCC2=O)C(=O)N1 (stereo unspecified),> 100,> 100,> 100,> 100,> 100,,> 100,> 100,> 100,,,,,,> 100,,,,
CCOC(=O)c1ccc(C)c(N=NN(C)C)c1,> 100,> 100,> 100,> 100,> 100,> 100,> 100,,,,,,,,,,,,
